Test results from ChEMBL document CHEMBL1255427, “Lack of a clinically relevant effect of an antacid on the pharmacokinetics of lersivirine” (Antimicrob Agents Chemother, 2010).

Columns and labels:
[1] = AUC (infinity) in healthy human plasma at 750 mg coadministered with 20 ml of antacid by HPLC-tandem mass spectrometry method; type: ADME, organism-based; design: dose 750 mg, time infinity
Homo sapiens [2] = test: Plasma concentration in healthy human plasma at 750 mg coadministered with 20 ml of antacid by HPLC-tandem mass spectrometry method; type: ADME, organism-based; conditions: in vivo
[3] = Cmax in healthy human plasma at 750 mg after 24 hrs coadministered with 20 ml of antacid by HPLC-tandem mass spectrometry method; type: ADME, organism-based; design: dose 750 mg
[4] = Tmax in healthy human plasma at 750 mg coadministered with 20 ml of antacid by HPLC-tandem mass spectrometry method; type: ADME, organism-based
[5] = Half life in healthy human plasma at 750 mg coadministered with 20 ml of antacid by HPLC-tandem mass spectrometry method; type: ADME, organism-based
[6] = AUC (infinity) in healthy human plasma at 750 mg by HPLC-tandem mass spectrometry method; type: ADME, organism-based; design: dose 750 mg, time infinity
Homo sapiens [7] = species: Homo sapiens; test: Plasma concentration in healthy human plasma at 750 mg by HPLC-tandem mass spectrometry method; type: ADME, organism-based; conditions: in vivo
[8] = Cmax in healthy human plasma at 750 mg after 24 hrs by HPLC-tandem mass spectrometry method; type: ADME, organism-based; design: dose 750 mg
[9] = Tmax in healthy human plasma at 750 mg by HPLC-tandem mass spectrometry method; type: ADME, organism-based
[10] = Half life in healthy human plasma at 750 mg by HPLC-tandem mass spectrometry method; type: ADME, organism-based
Homo sapiens [11] = species: Homo sapiens; test: Toxicity in healthy human assessed as death at 750 mg; type: organism-based; conditions: in vivo
Homo sapiens [12] = test: Toxicity in healthy human assessed as death at 750 mg coadministered with 20 ml of antacid; type: organism-based; conditions: in vivo
Homo sapiens [13] = species: Homo sapiens; test: Toxicity in healthy human assessed as serious adverse events at 750 mg; type: organism-based; conditions: in vivo
Homo sapiens [14] = test: Toxicity in healthy human assessed as serious adverse events at 750 mg coadministered with 20 ml of antacid; type: organism-based; conditions: in vivo
Homo sapiens [15] = species: Homo sapiens; test: Toxicity in healthy human assessed as gastrointestinal tract related toxicity at 750 mg; type: organism-based; conditions: in vivo
Homo sapiens [16] = test: Toxicity in healthy human assessed as gastrointestinal tract related toxicity at 750 mg coadministered with 20 ml of antacid; type: organism-based; conditions: in vivo

Work on `CCc1nn(CCO)c(CC)c1Oc1cc(C#N)cc(C#N)c1` [LERSIVIRINE] yielded an AUC(0-inf) [1] of 11200 ng·h/mL, a Cp (Homo sapiens [2]) of 64.41 ng/mL and a Cmax [3] of 1450 ng/mL. The Tmax [4] was 2 h, the half-life [5] was 6.22 h and the AUC(0-inf) [6] was 11000 ng·h/mL. It also gave a Cp (Homo sapiens [7]) of 83.41 ng/mL, a Cmax [8] of 1520 ng/mL and a Tmax [9] of 5 h. For the same compound, the half-life [10] was 6.91 h, the Activity (Homo sapiens [11]) was “Non-toxic” and the Activity (Homo sapiens [12]) was “Non-toxic”. For the same compound, the Activity (Homo sapiens [13]) was “Non-toxic”, the Activity (Homo sapiens [14]) was “Non-toxic” and the Activity (Homo sapiens [15]) was “Toxic”. For the same compound, the Activity (Homo sapiens [16]) was “Toxic”.
